Test results from the NIST ThermoML archive (doi:10.1021/acs.jced.8b00837).
Where “and” joins values, the source holds several entries; their conditions need not be identical. Identical values can stand only once. ± gives the expanded uncertainty stated by the source.

Conditions: Liquid, Vibrating tube method

CCCCn1cc[n+](C)c1.O=S(=O)([O-])C(F)(F)F [1-butyl-3-methylimidazolium trifluoromethanesulfonate]
Conditions	mass density
283.14 K, 20345 kPa	1320.61 ± 1.8 kg/m3
283.15 K, 101 kPa	1309.81 ± 1.5 kg/m3 and 1309.8 ± 1.5 kg/m3
283.15 K, 5337 kPa	1312.37 ± 1.6 kg/m3
283.15 K, 9906 kPa	1315.03 ± 1.7 kg/m3
283.15 K, 29997 kPa	1325.6 ± 2 kg/m3
283.15 K, 90097 kPa	1353.37 ± 2.9 kg/m3
283.15 K, 100086 kPa	1357.13 ± 3 kg/m3
283.15 K, 109957 kPa	1361.36 ± 3.2 kg/m3
283.15 K, 119997 kPa	1365.53 ± 3.4 kg/m3
283.15 K, 129993 kPa	1369.54 ± 3.5 kg/m3
283.15 K, 139996 kPa	1373.39 ± 3.7 kg/m3
283.16 K, 49996 kPa	1335.42 ± 2.2 kg/m3
283.16 K, 60363 kPa	1340.27 ± 2.4 kg/m3
283.16 K, 69993 kPa	1344.64 ± 2.6 kg/m3
283.16 K, 79621 kPa	1348.88 ± 2.7 kg/m3
283.17 K, 1225 kPa	1310.35 ± 1.6 kg/m3
283.17 K, 40094 kPa	1330.63 ± 2.1 kg/m3
288.15 K, 101 kPa	1305.77 ± 1.5 kg/m3
293.15 K, 101 kPa	1301.75 ± 1.5 kg/m3 and 1301.72 ± 1.5 kg/m3
293.15 K, 9722 kPa	1307 ± 1.6 kg/m3
293.15 K, 20425 kPa	1312.86 ± 1.8 kg/m3
293.15 K, 29997 kPa	1317.9 ± 1.9 kg/m3
293.15 K, 49997 kPa	1327.93 ± 2.2 kg/m3
293.15 K, 69996 kPa	1337.34 ± 2.5 kg/m3
293.15 K, 89996 kPa	1346.17 ± 2.8 kg/m3
293.15 K, 109846 kPa	1354.33 ± 3.2 kg/m3
293.15 K, 119150 kPa	1358.24 ± 3.3 kg/m3
293.15 K, 129846 kPa	1362.58 ± 3.5 kg/m3
293.15 K, 138949 kPa	1366.14 ± 3.6 kg/m3
293.16 K, 40322 kPa	1323.16 ± 2.1 kg/m3
293.16 K, 60340 kPa	1332.87 ± 2.4 kg/m3
293.16 K, 100028 kPa	1350.06 ± 3 kg/m3
293.17 K, 80507 kPa	1342.04 ± 2.7 kg/m3
293.2 K, 1740 kPa	1302.55 ± 1.5 kg/m3
293.2 K, 4978 kPa	1304.2 ± 1.6 kg/m3
298.13 K, 30005 kPa	1314.25 ± 1.9 kg/m3
298.13 K, 90001 kPa	1342.82 ± 2.8 kg/m3
298.14 K, 59968 kPa	1329.2 ± 2.4 kg/m3
298.15 K, 101 kPa	1297.74 ± 1.5 kg/m3 and 1297.8 ± 1.5 kg/m3
298.15 K, 1023 kPa	1298.28 ± 1.5 kg/m3
298.15 K, 10006 kPa	1303.37 ± 1.6 kg/m3
298.15 K, 19968 kPa	1308.89 ± 1.8 kg/m3
298.15 K, 40008 kPa	1319.41 ± 2.1 kg/m3
298.15 K, 49962 kPa	1324.37 ± 2.2 kg/m3
298.15 K, 70005 kPa	1333.89 ± 2.5 kg/m3
298.15 K, 79986 kPa	1338.41 ± 2.7 kg/m3
298.15 K, 99997 kPa	1347.1 ± 3 kg/m3
298.15 K, 109968 kPa	1351.04 ± 3.1 kg/m3
298.15 K, 120001 kPa	1355.27 ± 3.3 kg/m3
298.15 K, 139996 kPa	1363.31 ± 3.6 kg/m3
298.16 K, 5026 kPa	1300.4 ± 1.6 kg/m3
298.16 K, 130002 kPa	1359.35 ± 3.5 kg/m3
303.15 K, 101 kPa	1293.74 ± 1.5 kg/m3
313.13 K, 101 kPa	1285.81 ± 1.5 kg/m3
313.15 K, 101 kPa	1285.7 ± 1.5 kg/m3
313.15 K, 10395 kPa	1291.48 ± 1.6 kg/m3
313.15 K, 20326 kPa	1296.92 ± 1.7 kg/m3
313.15 K, 29996 kPa	1302.11 ± 1.9 kg/m3
313.15 K, 40009 kPa	1307.36 ± 2 kg/m3
313.15 K, 49994 kPa	1312.48 ± 2.1 kg/m3
313.15 K, 70102 kPa	1322.42 ± 2.4 kg/m3
313.15 K, 79871 kPa	1327.08 ± 2.6 kg/m3
313.15 K, 90021 kPa	1331.79 ± 2.8 kg/m3
313.15 K, 99922 kPa	1336.27 ± 2.9 kg/m3
313.15 K, 109826 kPa	1340.63 ± 3.1 kg/m3
313.15 K, 121633 kPa	1345.69 ± 3.3 kg/m3
313.15 K, 129825 kPa	1349.1 ± 3.4 kg/m3
313.15 K, 139153 kPa	1352.88 ± 3.5 kg/m3
313.16 K, 60130 kPa	1317.55 ± 2.3 kg/m3
313.2 K, 1097 kPa	1286.27 ± 1.5 kg/m3
313.2 K, 5364 kPa	1288.67 ± 1.5 kg/m3
333.09 K, 1557 kPa	1270.96 ± 1.5 kg/m3
333.1 K, 5234 kPa	1273.19 ± 1.5 kg/m3
333.11 K, 9847 kPa	1275.96 ± 1.6 kg/m3
333.14 K, 19578 kPa	1281.68 ± 1.7 kg/m3
333.15 K, 101 kPa	1270.09 ± 1.4 kg/m3 and 1270.06 ± 1.4 kg/m3
333.15 K, 29996 kPa	1287.62 ± 1.8 kg/m3
333.15 K, 69992 kPa	1308.75 ± 2.4 kg/m3
